Laboratory results: patent publication US10800732B2, “Substituted malonamides and their use as antibacterial drugs” (National Taiwan University, priority 2015, dated 2020)
Converted amounts (≈) assume the structure as drawn. Like-named read-outs stand apart in the source and are kept apart here.

Key:
[1] = tested on: Acinetobacter baumannii BCRC 80276; test: MIC, Acinetobacter baumannii; assay type: cell-based; settings: BCRC80276
[2] = tested on: Streptococcus pyogenes ATCC 19615; test: MIC, Streptococcus pyogenes; assay type: cell-based
[3] = tested on: Clostridium difficile R20291; test: MIC, Clostridium difficile R20291; assay type: cell-based
[4] = tested on: Salmonella Typhimurium ATCC 14028; test: MIC, Salmonella Typhimurium; assay type: cell-based; settings: Salmonella enterica
[5] = tested on: Escherichia coli ATCC 25922; test: MIC, Escherichia coli; assay type: cell-based; settings: ATCC25922
S. aureus NCTC 8325 [6] = test: Biosynthesis of macromolecules (3H precursor incorporation); assay type: cell-based, Staphylococcus aureus; settings: 4×MIC for 1 h
Description: FIG. 5. Effect of SC5005 and SC5035 on the biosynthesis of macromolecules in S. aureus. […] Meanwhile, ofloxacin (1 mg/L), rifampicin (1 mg/L), erythromycin (2 mg/L), and vancomycin (2 mg/L) were used as control inhibitors for the biosynthesis of DNA, RNA, protein and cell wall, respectively. Data are means of three independent experiments. Error bars represent the SD.
To investigate the mode of action of SC5005, a new derivative, SC5035, with better selectivity of antibacterial activity over cytotoxicity was included in the assays. First, the impacts of these two compounds on the biosynthesis of important macromolecules, including DNA, RNA, protein and cell wall, in S. aureus NCTC 8325 were assessed. Bacteria cells were incubated with [^3H]thymidine to assess DNA synthesis, [^3H] uridine to assess RNA synthesis, [^3H] leucine to assess protein synthesis, and [^3H] N-Acetyl-D-glucosamine to assess cell wall synthesis. The ofloxacin, rifampicin, erythromycin and vancomycin were used as control inhibitor for DNA, RNA, protein, and cell wall biosynthesis, respectively. Inhibition of biosynthesis pathway was determined by a reduction in the radial isotope signal of bacteria.

human red blood cells = test: Hemolytic activity; assay type: cell-based
Description: FIG. 9. Hemolytic activities of SC5005 and SC5035 on human red blood cell. Human red blood cells were incubated with SC5005 (A) and SC5035 (B) for 1 h followed by measuring the absorption of RBC released hemoglobin at 540 nm with microplate reader. Cell treated with 1% triton X-100 serves as positive control (P.C.; 100% hemolysis), and those treated with normal saline serves as negative control (N.C.) Bars represent the mean, and error bars represent the SD (n=3).
As data shown above, SC5005 and SC5035 can kill bacteria via forming pore in bacterial membrane. To see whether the pore-forming activity of these two compounds is specific for bacterial membrane, the hemolytic activities of these two agents on human red blood cells were accessed.

MRSA (ATCC 43300) [7] = test: Minimal biofilm eradication concentration, MRSA in the biofilm; assay type: cell-based, methicillin-resistant Staphylococcus aureus; settings: MRSA (ATCC 43300) in the biofilm
Description: A biofilm is composed of attached microorganisms enclosed in an extracellular polymeric substance matrix. Bacteria embedded in the biofilm are protected from antibiotic-mediated killing and the immune response. Reports have shown that biofilm formation is an important factor contributing to S. aureus infections of the skin, lung and indwelling medical devices such as catheters. Thus, the effect of SC5005 on MRSA in a biofilm was assayed.

S. aureus NCTC 8325 [8] = test: Transmission electron microscopy of cell membrane; assay type: cell-based, Staphylococcus aureus; settings: 15 min treatment, 100,000 magnifications
Description: FIG. 8. Transmission electron microscopy image of S. aureus after SC5005 treatment. S. aureus NCTC 8325 was treated with (A) mock or (B) SC5005 for 15 min followed by glutaraldehyde (2.5%) fixation and osimium tetraoxide (1%) staining. The membrane integrity was then observed with transmission electron microscopy at 100,000× magnification. The outer black ring marked with CW represents cell wall, and the inner black ring marked with CM represents cell membrane. The arrow points the pore formed in S. aureus cell membrane.
To investigate how SC5005 changes membrane permeability of S. aureus, bacteria cells were treated with SC5005 for 15 min followed by glutaraldehyde (2.5%) fixation and osimium tetraoxide (1%) staining. The membrane of bacteria was then observed by Transmission electron microscopy (TEM) at 100,000 magnifications (FIG. 8). The outer clear black circle is cell wall of S. aureus, and the inner clear black circle is cell membrane of S. aureus. These two circles of control treated S. aureus remain intact, and the cell membrane is undamaged.

S. aureus NCTC 8325 [9] = test: Membrane integrity (SYTO 9 / propidium iodide staining); assay type: cell-based, Staphylococcus aureus; settings: 4×MIC (Triton X-100: 10%) for 15 minutes
Excerpt: FIG. 7. Membrane integrity of S. aureus after SC5005, SC5035 and five common antibiotics treatment. […] SYTO 9, a green fluorescence dye, stains chromosome of all bacteria cells, regardless of the membrane integrity. In contrast, propidium iodide (PI), a red fluorescence dye, only stains cell with damaged membrane. Thus, bacteria cell with intact membrane can only be stained by SYTO 9, and cell with perforated membrane will be stained by both fluorescence dyes, showing a yellow color in merged images.
To further validate the action mechanism of SC5005 and SC5035, two fluorescence dyes were used for evaluation of membrane integrity of drug treated S. aureus. The propidium iodide dye only stains cells with perforated membrane, while the SYTO 9 stains all cells in spite of membrane integrity.

MRSA (ATCC 33592) = test: Survival of MRSA-infected C57BL/6 mice, intraperitoneal administration; settings: surviving mice, 10 mg/kg
Description: (A) Effect of intraperitoneal administration of SC5005 on the survival of MRSA-infected mice. Female C57BL/6 mice were inoculated intraperitoneally with 5×10^4 CFU of MRSA (ATCC 33592). Infected mice received intraperitoneal injection of 1 mg/kg (filled inverted triangles), 3 mg/kg (filled triangles) and 10 mg/kg (filled squares) SC5005 or vehicle (mock) (filled circles) once per day for three consecutive days. Survival rates, as represented by Kaplan-Meier curves, are shown for the mock and SC5005 treatment groups. *P<0.05, for the difference between treated groups and the control group. (B) Body weight changes in individual vehicle or SC5005-treated MRSA-infected mice. Each line represents an individual mouse. The black lines indicate mice that survived until the end of the study and the grey lines indicate mice that were euthanized during the study.
To further evaluate the therapeutic potential of SC5005 against MRSA infection, inbred C57BL/6 mice were intraperitoneally injected with a lethal dose (5×10^4 CFU) of MRSA (ATCC 33592), followed by intraperitoneal administration of vehicle control or SC5005 (1 mg/kg, 3 mg/kg or 10 mg/kg) at 1 h, 24 h and 48 h post-infection (N=5 for each group).

S. aureus NCTC 8325 [10] = test: Intracellular ATP leakage (ATPlite one-step); assay type: cell-based, Staphylococcus aureus; settings: 4×MIC for 15 min
Description: FIG. 6. Intracellular ATP leakage of S. aureus treated with SC5005, SC5035 and antibiotics. […] Data was presented as percentage of intracellular ATP level to that of untreated bacteria cells (considered as 100%). Bars represent the mean, and error bars represent the SD (n=3). ***: p-value <0.001
To investigate whether SC5005 and SC5035 also act on bacterial cell membrane, intracellular ATP levels of S. aureus treated with SC5005, SC5035 and antibiotics for 15 min was determined by using ATPlite one-step assay kit.

MRSA (ATCC 43300) [11] = test: MIC, MRSA ATCC 43300; assay type: cell-based, methicillin-resistant Staphylococcus aureus; settings: MRSA (ATCC 43300)
MSSA ATCC 29213 = test: MIC, MSSA ATCC 29213; assay type: cell-based, Staphylococcus aureus; settings: Table 6

**Q.** `O=C(Nc1ccc(Cl)c(C(F)(F)F)c1)Nc1ccc(Cl)c(C(F)(F)F)c1` [SC78] was tested. Which MIC [1] did it give?
**A.** > 64 mg/L

**Q.** What about the MIC ([2]; ATCC19615, read-out: MIC) of the same compound?
**A.** 0.25 mg/L (≈ 0.599 µM)

**Q.** What about the MIC ([3]; Clostridioides difficile, read-out: MIC) of the same compound?
**A.** 0.25 mg/L (≈ 0.599 µM)

**Q.** What about the MIC [4] of the same compound?
**A.** > 64 mg/L

**Q.** What about the MIC [5] of the same compound?
**A.** > 64 mg/L

**Q.** Which results are given for `O=C(Nc1ccc(Cl)c(C(F)(F)F)c1)C(CCCl)C(=O)Nc1ccc(Cl)c(C(F)(F)F)c1` [SC5005]?
**A.** incorporation signal in DNA, RNA, protein and cell wall biosynthesis (S. aureus NCTC 8325 [6]): lower signal in all four macromolecule biosynthesis pathway; MIC [2]: 0.5 mg/L (≈ 0.958 µM); hemolysis of RBC (human red blood cells): no significant hemolysis; MBEC (MRSA (ATCC 43300) [7]): 16 mg/L; pore formation in cell membrane (TEM) (S. aureus NCTC 8325 [8]): a pore was observed in the membrane of most bacteria cells; propidium iodide staining (membrane integrity) (S. aureus NCTC 8325 [9]): can be stained by propidium iodide; MIC [3]: 0.5 mg/L (≈ 0.958 µM); time for body weight to return to pre-infection levels (MRSA (ATCC 33592)): 2 to 5 days; intracellular ATP levels (S. aureus NCTC 8325 [10]): significantly dropped; MIC (MRSA (ATCC 43300) [11]): 0.5 mg/L (≈ 0.958 µM); MIC (MSSA ATCC 29213): 0.5 mg/L (≈ 0.958 µM)
